Measured values taken from article PMC12298351, “Novel 3,19-(N-Phenyl-3-(4-fluorophenyl)-pyrazole) Acetal of Andrographolide Promotes Cell Cycle Arrest and Apoptosis in MDA-MB-231 Breast Cancer Cells” (Pharmaceuticals, 2025).
Values joined by “and” are separate entries in the source; they are usually repeats but may differ in a detail not shown here. Identical values can stand only once.

How the values were obtained:
[1] = tested on: MDA-MB-231 breast cancer cells; experiment: MTT cell proliferation assay; format: cell-based; conditions: MDA-MB-231, 0-200 µM, 72 h
Experimental: (§1) These MDA-MB-231 breast cancer cells were treated with 1f at different concentrations, i.e., 0, 1.56, 3.125, 6.25, 12.5, 25, 50, 100, and 200 µM, for 72 h.
(§2) MDA-MB-231 breast cancer cells and MCF-10A normal breast epithelial cells (from ATCC, Manassas, VA, USA) were seeded into 96-well plates at a density of 4 × 10^3 cells per well. After overnight incubation at 37 °C, the cells were treated with varying concentrations of compound 1f (0, 1.56, 3.125, 6.25, 12.5, 25, 50, 100, and 200 µM) and incubated for an additional 72 h. Untreated cells served as the negative control. Subsequently, 10 µL of the MTT solution (5 mg/mL) was added to each well, and the plates were incubated for 3 h to assess cell viability. The medium was then discarded, and the absorbance was measured at 570 nm using a microplate reader (Promega GloMax, Madison, WI, USA).

[2] = tested on: MDA-MB-231 breast cancer cell line; experiment: Annexin V-FITC/PI apoptotic assay (FACS); format: cell-based; conditions: MDA-MB-231, 3.33 µM
Experimental: Apoptosis is considered a preventive mechanism against cancer dissemination, as it plays a crucial role in eliminating excessively proliferating and mutated cancer cells from the body. Following the administration of cytotoxic drugs as treatment for various types of cancer, apoptosis is a significant contributor to cellular death. […] We proceeded to investigate whether compound 1f triggers apoptosis or not. The MDA-MB-231 breast cancer cell line was treated with 1f for 24, 48, and 72 h. A quantitative evaluation of apoptotic activity was performed using FACS.
To evaluate the pro-apoptotic effect of compound 1f, Annexin V-FITC/PI dual staining was conducted. Cells were seeded into 12-well plates at a density of 1 × 10^5 cells per well and treated with the compound for 24, 48, and 72 h. Post-treatment, the cells were collected using 1X trypsin, including both floating and adherent cells, and centrifuged at 4000 rpm for 5 min. The resulting pellet was resuspended in 100 µL of 1X Annexin V binding buffer and stained with Annexin V-FITC, followed by a 15 min incubation in the dark at 4 °C. Cells were then washed, resuspended in fresh binding buffer, and stained with propidium iodide before immediate analysis via flow cytometry.

MDA-MB-231 cells = experiment: Cell cycle assay, PI staining, flow cytometry; format: cell-based; conditions: MDA-MB-231, 24 h
Experimental: Cell proliferation is well associated with the regulation of cell cycle progression. Therefore, the effect of 1f on cell cycle distribution was evaluated by flow cytometry in PI-stained cells.
Cell cycle distribution was assessed by propidium iodide (PI) staining followed by flow cytometric analysis. Cells (3 × 10^5/well) were plated in 6-well plates and allowed to adhere for 24 h. To synchronize the cell cycle, the medium was replaced with serum-free medium for 8 h. After synchronization, cells were treated with various concentrations of compound 1f for 24 h. Following treatment, cells were harvested with 1X trypsin, washed with cold PBS, and fixed in 70% ethanol at 4 °C for 2 h. Fixed cells were washed twice with PBS, then incubated overnight in a staining solution containing RNase A (1 µL, 10 mg/mL) and PI (5 µL, 1 mg/mL) in 1X PBS. Cell cycle distribution was subsequently determined using flow cytometry.

[3] = tested on: MCF-10a (normal breast cells)
Experimental: as §1, §2

C=C1CCC2C3(C)COC(c4cn(-c5ccccc5)nc4-c4ccc(F)cc4)OC3CCC2(C)C1CC=C1C(=O)OCC1O (stereo not drawn) [1f, 3,19-(N-Phenyl-3-(4-fluorophenyl)-pyrazole) Acetal of Andrographolide]
anti-proliferation activity (MTT) [1]: strong dose-dependent anti-proliferation activity
apoptotic cells (total) ([2]; 24 h): remained almost the same
apoptotic cells (total) ([2]; 48 h): 44%
early apoptosis (Q3) ([2]; 48 h): 10.3%
late apoptosis (Q2) ([2]; 48 h): 33.0%
apoptotic cells (total) ([2]; 72 h): 55%
early apoptosis (Q3) ([2]; 72 h): 14.7%
late apoptosis (Q2) ([2]; 72 h): 40.6%
G1 (%) (MDA-MB-231 cells; 3.33 µM): 77.36 ± 0.69%
G2 (%) (MDA-MB-231 cells; 3.33 µM): 6.94 ± 0.28%
S (%) (MDA-MB-231 cells; 3.33 µM): 14.2% and 14.4 ± 0.95%
G1 (%) (MDA-MB-231 cells; 5.00 µM): 62.83 ± 1.2%
G2 (%) (MDA-MB-231 cells; 5.00 µM): 4.87 ± 0.26%
S (%) (MDA-MB-231 cells; 5.00 µM): 25.2% and 26.5 ± 0.96%
G1 (%) (MDA-MB-231 cells; 6.66 µM): 59.6% and 57.83 ± 1.2%
G2 (%) (MDA-MB-231 cells; 6.66 µM): 4.01% and 3.82 ± 0.20%
S (%) (MDA-MB-231 cells; 6.66 µM): 21.9 ± 1.03%
CC50 [3]: 50 µM
